The text below walks through data of patent publication US20250206738A1, “WRN INHIBITORS” (Nimbus Wadjet, Inc., priority 2023, published 2025).

Test [1] addresses T1, human Werner helicase (WRN, Uniprot Q14191, amino acids 517-1235 with L1074F point mutation; WRN-BV08) (Homo sapiens, UniProt Q14191, L1074F).
T1 construct: Uniprot Q14191, amino acids 517-1235 with L1074F point mutation; 8xHis (C, cleaved yes); TEV cleavage site (ENLYFQG) (C, cleaved yes); made in house; host or cells: Sf9 insect cells (baculovirus, pFastBac)
The test can be described thus: WRN (BV08) ADP-Glo assay. The test is classed as biochemical. Conditions: WRN-BV08 (aa 517-1235, L1074F); read-out: ADP-Glo_hWRN_IC50. The procedure, abridged: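 ADP formed by untagged WRN helicase fragment (aa 517-1235, L1074F; 0.15 nM final) on 0.1 nM DNA duplex with […], 60 min at 25 °C after 15 min compound preincubation, pH 7.5 Bicine buffer. Luminescent ADP-Glo readout; IC50 from 4-parameter fit of % inhibition.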
A general note: ADP-Glo turns the ADP formed in a reaction into a luminescent signal.

For test [2], the system named is p21 induction in HCT 116 cells. The test can be described thus: p21 induction in cells (In-Cell Western, p21/GAPDH ratio). Conditions: 24 h compound incubation, read-out: P21_EC50. The test is classed as cell-based. In a few lines:
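p21 and GAPDH signals quantified by In-Cell Western after 24 h compound exposure of HCT 116 cells (11 concentrations, 2-fold steps, usual top 10 μM). Percent activation from p21/GAPDH ratio relative to DMSO (low) and internal WRN inhibitor (high) controls; curve fit gave EC50.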

Where two headings read alike, the source gives them in different places.

T1 sequence (Q14191 with tags, fused parts or gaps L1074F): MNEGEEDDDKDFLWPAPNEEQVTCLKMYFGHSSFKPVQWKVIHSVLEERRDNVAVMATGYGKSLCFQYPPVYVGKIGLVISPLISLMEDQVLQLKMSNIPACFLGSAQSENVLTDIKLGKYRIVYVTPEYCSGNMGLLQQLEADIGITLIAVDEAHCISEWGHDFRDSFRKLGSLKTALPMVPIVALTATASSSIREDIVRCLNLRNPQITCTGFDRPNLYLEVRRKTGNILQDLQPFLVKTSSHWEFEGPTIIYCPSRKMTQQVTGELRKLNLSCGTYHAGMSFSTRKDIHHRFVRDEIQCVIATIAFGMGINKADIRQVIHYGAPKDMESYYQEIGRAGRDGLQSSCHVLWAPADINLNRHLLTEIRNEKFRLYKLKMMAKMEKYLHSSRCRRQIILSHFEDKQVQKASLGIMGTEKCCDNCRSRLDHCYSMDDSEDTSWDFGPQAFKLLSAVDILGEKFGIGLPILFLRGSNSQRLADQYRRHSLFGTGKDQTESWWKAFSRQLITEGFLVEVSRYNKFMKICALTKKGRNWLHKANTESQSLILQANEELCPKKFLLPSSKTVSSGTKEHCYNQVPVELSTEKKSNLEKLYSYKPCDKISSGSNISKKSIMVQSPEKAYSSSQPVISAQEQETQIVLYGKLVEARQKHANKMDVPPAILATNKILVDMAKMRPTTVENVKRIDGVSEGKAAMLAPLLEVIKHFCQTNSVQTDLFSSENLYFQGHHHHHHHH

Turning to `CCc1c(N2CCN(C(=O)c3cc(C(C)(C)O)cnc3OC)[C@H]3CC[C@@H]32)c(=O)c2nn(C3=CCOCC3)nc2n1CC(=O)NC12CC(C3CC3)(C1)C2` [I-221, N-(3-cyclopropylbicyclo[1.1.1]pentan-1-yl)-2-(2-(3,6-dihydro-2H-pyran-4-yl)-5-ethyl-6-((1S,6S)-5-(5-(2-hydroxypropan-2-yl)-2-methoxynicotinoyl)-2,5-diazabicyclo[4.2.0]octan-2-yl)-7-oxo-2,7-dihydro-4H-[1,2,3]triazolo[4,5-b]pyridin-4-yl)acetamide], the IC50 in test [1] was in the range of 5 to 50 nM. The EC50 in test [2] (Homo sapiens, HCT-116, 24 h) lay within 2000 to 5000 nM.

On to `CCc1c(N2CCN(C(=O)c3c(O)ccc4ncoc34)CC2)c(=O)n2nc(-c3ccnc(OC)c3)nc2n1CC(=O)NC12CC(C(F)(F)F)(C1)C2` [I-10, 2-(5-ethyl-6-(4-(6-hydroxybenzo[d]oxazole-7-carbonyl)piperazin-1-yl)-2-(2-methoxypyridin-4-yl)-7-oxo-[1,2,4]triazolo[1,5-a]pyrimidin-4(7H)-yl)-N-(3-(trifluoromethyl)bicyclo[1.1.1]pentan-1-yl)acetamide], for which the IC50 in test [1] was 5 to 50 nM. Moreover, the EC50 in test [2] (Homo sapiens, HCT-116, 24 h) was ≤ 500 nM.

For `CCc1c(N2CCN(C(=O)c3c(OC)ncc(C)c3O)CC2)c(=O)n2nc(-c3ccnc(OC)c3)nc2n1CC(=O)NC12CC(C3CC3)(C1)C2` [I-39, N-(3-cyclopropylbicyclo[1.1.1]pentan-1-yl)-2-(5-ethyl-6-(4-(4-hydroxy-2-methoxy-5-methylnicotinoyl)piperazin-1-yl)-2-(2-methoxypyridin-4-yl)-7-oxo-[1,2,4]triazolo[1,5-a]pyrimidin-4(7H)-yl)acetamide], the IC50 in test [1] was in the range of 5 to 50 nM. In addition, the EC50 in test [2] (Homo sapiens, HCT-116, 24 h) is ≤ 500 nM.

`CCc1c(N2CCN(C(=O)c3cnn(C)c3)CC2)c(=O)n2nc(-c3ccnc(OC)c3)nc2n1CC(=O)N[C@@H]1C[C@H]1c1c(F)cccc1F` (racemic) [I-244, rac-N-((1R,2S)-2-(2,6-difluorophenyl)cyclopropyl)-2-(5-ethyl-2-(2-methoxypyridin-4-yl)-6-(4-(1-methyl-1H-pyrazole-4-carbonyl)piperazin-1-yl)-7-oxo-[1,2,4]triazolo[1,5-a]pyrimidin-4(7H)-yl)acetamide]: the IC50 in test [1] lay within 100 to 500 nM. In addition, in test [2] (Homo sapiens, HCT-116, 24 h), the EC50 is > 5000 nM.

For `CCc1c(N2CCN(C(=O)c3cccc4ncoc34)CC2)c(=O)n2nc(-c3ccnc(OC)c3)nc2n1CC(=O)NC12CC(C(F)(F)F)(C1)C2` [I-231, 2-(6-(4-(benzo[d]oxazole-7-carbonyl)piperazin-1-yl)-5-ethyl-2-(2-methoxypyridin-4-yl)-7-oxo-[1,2,4]triazolo[1,5-a]pyrimidin-4(7H)-yl)-N-(3-(trifluoromethyl)bicyclo[1.1.1]pentan-1-yl)acetamide], in test [1], the IC50 was in the range of 5 to 50 nM. For the same compound, in test [2] (Homo sapiens, HCT-116, 24 h), the EC50 is 2000 to 5000 nM.

Regarding `CCc1c(N2CCN(C(=O)c3ncnc(C)c3O)CC2)c(=O)n2nc(-c3ccncc3)nc2n1CC(=O)NC12CC(C3CCC3)(C1)C2` [I-219, N-(3-cyclobutylbicyclo[1.1.1]pentan-1-yl)-2-(5-ethyl-6-(4-(5-hydroxy-6-methylpyrimidine-4-carbonyl)piperazin-1-yl)-7-oxo-2-(pyridin-4-yl)-[1,2,4]triazolo[1,5-a]pyrimidin-4(7H)-yl)acetamide], the IC50 in test [1] lay within 5 to 50 nM. For the same compound, the EC50 in test [2] (Homo sapiens, HCT-116, 24 h) lay within 500 to 2000 nM.

Consider `CCc1c(N2CCN(C(=O)c3ncccc3C(=O)O)CC2)c(=O)c2nn(-c3ccnc(OC)c3)nc2n1CC(=O)NC12CC(C3CC3)(C1)C2` [I-216, 2-(4-(4-(2-((3-cyclopropylbicyclo[1.1.1]pentan-1-yl)amino)-2-oxoethyl)-5-ethyl-2-(2-methoxypyridin-4-yl)-7-oxo-4,7-dihydro-2H-[1,2,3]triazolo[4,5-b]pyridin-6-yl)piperazine-1-carbonyl)nicotinic acid], for which the IC50 in test [1] lay in the range of 5 to 50 nM. The EC50 in test [2] (Homo sapiens, HCT-116, 24 h) was > 5000 nM.

In the case of `CCc1c(N2CCN(C(=O)c3ncnc(C)c3O)[C@H]3CC[C@@H]32)c(=O)c2c(nnn2C2CC2)n1CC(=O)NC12CC(C3CC3)(C1)C2` [I-245, 2-(1-cyclopropyl-5-ethyl-6-((1S,6S)-5-(5-hydroxy-6-methylpyrimidine-4-carbonyl)-2,5-diazabicyclo[4.2.0]octan-2-yl)-7-oxo-1,7-dihydro-4H-[1,2,3]triazolo[4,5-b]pyridin-4-yl)-N-(3-cyclopropylbicyclo[1.1.1]pentan-1-yl)acetamide], in test [1], the IC50 lay in the range of 100 to 500 nM. For the same compound, the EC50 in test [2] (Homo sapiens, HCT-116, 24 h) was in the range of 2000 to 5000 nM.

With `CCc1c(N2CCN(C(=O)c3ncnc(C)c3O)[C@H]3CC[C@@H]32)c(=O)c2nn(C3=CCOC(C)C3)nc2n1CC(=O)NC12CC(C3CC3)(C1)C2` (single isomer, unassigned) [I-170], the IC50 in test [1] lay in the range of 5 to 50 nM. Further, the EC50 in test [2] is ≤ 500 nM.

Consider `CCc1c(N2CCN(C(=O)c3ncnc(C)c3O)CC2)c(=O)n2nc(C3=CCN(C(=O)COC)CC3)nc2n1CC(=O)NC12CC(C3CC3)(C1)C2` [I-18, N-(3-cyclopropylbicyclo[1.1.1]pentan-1-yl)-2-(5-ethyl-6-(4-(5-hydroxy-6-methylpyrimidine-4-carbonyl)piperazin-1-yl)-2-(1-(2-methoxyacetyl)-1,2,3,6-tetrahydropyridin-4-yl)-7-oxo-[1,2,4]triazolo[1,5-a]pyrimidin-4(7H)-yl)acetamide], for which, in test [1], the IC50 is 5 to 50 nM. Also, the EC50 in test [2] (Homo sapiens, HCT-116, 24 h) is > 5000 nM.

With `CCc1c(N2CCN(C(=O)c3c(O)ccc4ncoc34)CC2)c(=O)n2nc(-c3ccnc(OC)c3)nc2n1CC(=O)NC12CC(C3CC3)(C1)C2` [I-36, N-(3-cyclopropylbicyclo[1.1.1]pentan-1-yl)-2-(5-ethyl-6-(4-(6-hydroxybenzo[d]oxazole-7-carbonyl)piperazin-1-yl)-2-(2-methoxypyridin-4-yl)-7-oxo-[1,2,4]triazolo[1,5-a]pyrimidin-4(7H)-yl)acetamide], the IC50 in test [1] was ≤ 5 nM. Also, in test [2] (Homo sapiens, HCT-116, 24 h), the EC50 is ≤ 500 nM.

`CCc1c(N2CCN(C(=O)c3ncnc(C)c3O)CC2)c(=O)c2nc(N(C)C)cnc2n1CC(=O)NC12CC(C(F)(F)F)(C1)C2` [I-1, 2-(2-(dimethylamino)-6-ethyl-7-(4-(5-hydroxy-6-methylpyrimidine-4-carbonyl)piperazin-1-yl)-8-oxopyrido[2,3-b]pyrazin-5(8H)-yl)-N-(3-(trifluoromethyl)bicyclo[1.1.1]pentan-1-yl)acetamide]: the IC50 in test [1] is 100 to 500 nM. Moreover, the EC50 in test [2] (Homo sapiens, HCT-116, 24 h) is > 5000 nM.

In the case of `CCc1c(N2CCN(C(=O)c3ncnc(C)c3O)CC2)c(=O)n2nc(-c3ccnc(OC)c3)nc2n1CCC(=O)NC12CC(C(F)(F)F)(C1)C2` [I-13, 3-(5-ethyl-6-(4-(5-hydroxy-6-methylpyrimidine-4-carbonyl)piperazin-1-yl)-2-(2-methoxypyridin-4-yl)-7-oxo-[1,2,4]triazolo[1,5-a]pyrimidin-4(7H)-yl)-N-(3-(trifluoromethyl)bicyclo[1.1.1]pentan-1-yl)propanamide], the IC50 in test [1] is > 500 nM. The EC50 in test [2] (Homo sapiens, HCT-116, 24 h) was > 5000 nM.

In the case of `CCc1c(N2CCN(C(=O)c3c(O)ccc4ncoc34)CC2)c(=O)n2nc(-c3ccnc(OC)c3)nc2n1CC(=O)NC12CC(C3COC3)(C1)C2` [I-46, 2-(5-ethyl-6-(4-(6-hydroxybenzo[d]oxazole-7-carbonyl)piperazin-1-yl)-2-(2-methoxypyridin-4-yl)-7-oxo-[1,2,4]triazolo[1,5-a]pyrimidin-4(7H)-yl)-N-(3-(oxetan-3-yl)bicyclo[1.1.1]pentan-1-yl)acetamide], the IC50 in test [1] lay within 100 to 500 nM. The EC50 in test [2] (Homo sapiens, HCT-116, 24 h) is > 5000 nM.

Consider `CCc1c(N2CCN(C(=O)CC3CCCC(=O)N3)[C@H]3CC[C@@H]32)c(=O)c2nn(C3=CCOCC3)nc2n1CC(=O)NC12CC(C(C)C)(C1)C2` (stereo partly drawn) [I-235, 2-(2-(3,6-dihydro-2H-pyran-4-yl)-5-ethyl-7-oxo-6-((1S,6S)-5-(2-(6-oxopiperidin-2-yl)acetyl)-2,5-diazabicyclo[4.2.0]octan-2-yl)-2,7-dihydro-4H-[1,2,3]triazolo[4,5-b]pyridin-4-yl)-N-(3-isopropylbicyclo[1.1.1]pentan-1-yl)acetamide], for which the IC50 in test [1] was 5 to 50 nM. Further, the EC50 in test [2] (Homo sapiens, HCT-116, 24 h) was > 5000 nM.

As to `CCc1c(N2CCN(C(=O)c3c(OC)ncc(C)c3O)[C@H]3CC[C@@H]32)c(=O)c2nc(N(C)C)cnc2n1CC(=O)NC12CC(C3CC3)(C1)C2` [I-233, N-(3-cyclopropylbicyclo[1.1.1]pentan-1-yl)-2-(2-(dimethylamino)-6-ethyl-7-((1S,6S)-5-(4-hydroxy-2-methoxy-5-methylnicotinoyl)-2,5-diazabicyclo[4.2.0]octan-2-yl)-8-oxopyrido[2,3-b]pyrazin-5(8H)-yl)acetamide], the IC50 in test [1] was 5 to 50 nM. In addition, the EC50 in test [2] (Homo sapiens, HCT-116, 24 h) was 500 to 2000 nM.

Take `CCc1c(N2CCN(C(=O)c3c(OC)cccc3B(O)O)[C@H]3CC[C@@H]32)c(=O)c2nn(C3=CCOCC3)nc2n1CC(=O)NC12CC(C(C)C)(C1)C2` [I-204, (2-((1S,6S)-5-(2-(3,6-dihydro-2H-pyran-4-yl)-5-ethyl-4-(2-((3-isopropylbicyclo[1.1.1]pentan-1-yl)amino)-2-oxoethyl)-7-oxo-4,7-dihydro-2H-[1,2,3]triazolo[4,5-b]pyridin-6-yl)-2,5-diazabicyclo[4.2.0]octane-2-carbonyl)-3-methoxyphenyl)boronic acid]: the IC50 in test [1] lay in the range of 5 to 50 nM. Also, in test [2] (Homo sapiens, HCT-116, 24 h), the EC50 was ≤ 500 nM.
